Assay results: US20040266791A1 (priority 2003, published 2004)
Counter-ions that a name gives are not always drawn.

Legend:
[1] = 1 mg/ml aqueous solution, 2% sorbitol, 0.2% benzoic acid, stress temperatures up to 80° C.
Description: Dissolve the benzoic acid in 60% of the water (heat if necessary to 90° C., allow to cool afterwards). […] The sorbitol is dissolved in the remaining water (40%). Combine both solutions and make up the volume with water.

[2] = in water at 20° C., calculated on free base
Description: The dissolution of the solid can take a period of time until an equilibrium/steady state between the solid and liquid phases is reached. […] This value is taken as the solubility determination.
Then, 2 ml of the suspension was filtered over a micropore filter. Finally, 1.0 ml of the filtrate was freeze-dried, followed by weight determination of the residue. The maximum amount of the salt dissolved (recalculated to the base), was calculated from this weight determination.

[3] = Hygroscopicity test / water content by Karl Fischer titration; type: physicochemical; details: for Water content in % at 2 weeks, 40/75: 40° C./75% relative humidity; for Water content in % at 2 weeks, normal: normal conditions (open air); for Water content in % at t = 0: before storage, Karl Fischer; for water content: isolated dried product of the example
Description: The salts were subjected to storage at normal conditions (open air) and at 40° C./75% relative humidity. Water content was determined by Karl Fischer titration.

[4] = cited from earlier work

Compound | solubility (calc. on free base) [2] [mg/mL] | Water content in % at 2 weeks, 40/75 [3] [%] | Water content in % at 2 weeks, normal [3] [%] | Water content in % at t = 0 [3] [%] | other results
Risperidone (L)hemimalate | >300 | 1.09 | 0.95 | 0.89 | stability of solution [1]: surprisingly stable
risperidone tartrate |  |  |  |  | room temperature solubility ([4]; reported in U.S. Pat. No. 5,616,587): about 80 mg/ml
Cc1nc2n(c(=O)c1CCN1CCC(c3noc4cc(F)ccc34)CC1)CCCC2 [Risperidone dihydrochloride] |  | 0.15 | 0.15 | 0.13 | stability of solution [1]: surprisingly stable; water content after exposure to air under ambient conditions for 3 weeks ([3]; 3 weeks, air, ambient conditions): 3 weeks: 0.30%; absorbed or adsorbed water ([3]; absence of drying, or standing at ambient temperature in open air): less than 0.5%; hygroscopicity ([3]; standing at ambient temperature in open air): not hygroscopic
Risperidone mesylate | >160 |  |  | 0.41 | Water content in % at 2 weeks, 40/75 ([3]; listed as Mesylate): 8.51%; Water content in % at 2 weeks, 40/75 ([3]; listed as risperidone mesylate): 2 weeks: 8.51%; Water content in % at 2 weeks, normal ([3]; listed as Mesylate): 1.38%; Water content in % at 2 weeks, normal ([3]; listed as risperidone mesylate): for 2 weeks: 1.38%; water content [3]: water content: 0.41%
Cc1nc2n(c(=O)c1CCN1CCC(c3noc4cc(F)ccc34)CC1)CCCC2 [Risperidone base, 3-[2-[4-(6-Fluoro-1,2-benzisoxazol-3-yl)-1-piperidinyl]-ethyl]-6,7,8,9-tetrahydro-2-methyl-4-H-pyrido[1,2-a]-pyrimidin-4-one] |  |  |  |  | solubility in water ([4]; background statement, no source given): approximately 4 mg/ml
Risperidone besylate | 6.5 |  |  |  | 
Cc1nc2n(c(=O)c1CCN1CCC(c3noc4cc(F)ccc34)CC1)CCCC2.O=C(O)C=CC(=O)O [Risperidone hydrogenmaleate] |  | 0.07 | 0.09 | 0.09 | stability of solution [1]: surprisingly stable; water content [3]: water content: <0.1%
Risperidone tosylate | 2 |  |  |  | 
Risperidone hemitartrate | 40 | 0.59 | 0.56 | 0.28 | water content [3]: Water content: 0.28%
Risperidone acetate monohydrate | 72 | 3.66 | 3.39 | 3.78 | 
Risperidone Hemifumarate | 3 |  |  |  | 
